Data on 5 compounds can be found in ChEMBL document CHEMBL5532741, “Novel 2,4-Dichloro-5-sulfamoylbenzoic Acid Oxime Esters: First Studies as Potential Human Carbonic Anhydrase Inhibitors” (ACS Med Chem Lett, 2024).

pIC50: −log10 of the molar value. The source made the active and inactive calls. The calls are words filed in the database; no cut-off is given here.

For experiment [1], the system named is MDA-MB-231. Kind of experiment: Antiproliferative activity against human MDA-MB-231 cells measured after 72 hrs by cell counting kit 8 method. Format: functional, cell-based. As to conditions: MDA-MB-231, 72 h.
The test system of experiment [2] is MDA-MB-231. Kind of experiment: Antiproliferative activity against human MDA-MB-231 cells at high concentration measured after 72 hrs by cell counting kit 8 method. It counts as functional, cell-based.
Experiment [3] is filed under the species Homo sapiens. Kind of experiment: Selectivity index, ratio of Ki for recombinant human CA9 to Ki for recombinant human CA2.
Experiment [4] is filed under the species Homo sapiens. Kind of experiment: Selectivity index, ratio of Ki for recombinant human CA12 to Ki for recombinant human CA2.

As to `NS(=O)(=O)c1ccc(NC(=O)Nc2ccc(F)cc2)cc1` [SLC-0111], the negative-log IC50 (pIC50) in the experiment with MDA-MB-231 [1] was 4.74.

In the experiment on MDA-MB-231 [1], `COc1cccc(OC)c1/C=N/OC(=O)c1cc(S(N)(=O)=O)c(Cl)cc1Cl` showed a pIC50 of 3.96.

Consider `NS(=O)(=O)c1cc(C(=O)O/N=C/c2ccccc2)c(Cl)cc1Cl`, for which, in the experiment on MDA-MB-231 [2], the result was inactive.

Consider `NS(=O)(=O)c1cc(C(=O)O)c(Cl)cc1Cl`, for which the Ratio Ki in the experiment listed under Homo sapiens [3] is 7.9; in the experiment filed under Homo sapiens [4], 22.7.

In the case of `COc1ccc(/C=N/OC(=O)c2cc(S(N)(=O)=O)c(Cl)cc2Cl)c(OC)c1OC`, the pIC50 in the experiment with MDA-MB-231 [1] is 3.95.
